# In patent US9102617B2, “Antimicrobial agents” (Rutgers, The State University of New Jersey, priority 2010, dated 2015):
# Read-outs that look alike come from different tables or passages of the source.
# Tests used:
# [1] = tested on: methicillin-sensitive Staphylococcus aureus (MSSA); assay: Planktonic antibacterial broth microdilution assay (Test C), MIC vs MSSA; assay type: cell-based; details: 37° C., growth read after 24 to 48 hours at OD 600 nm
# Protocol: (§1) Test C. Planktonic (Free-Living) Antibacterial Assay.
# (§2) Planktonic antibacterial activity can be determined using a broth microdilution assay in which log-phase bacteria are grown at 37° C. in appropriate medium containing two-fold serial dilutions of a compound to yield a final concentration ranging from 256 to 0.1 μg/ml. For determination of minimal inhibitory concentration (MIC) values, bacterial growth is monitored after 24 to 48 hours by measuring optical density at 600 nm. […] The minimal inhibitory concentration against methicillin-sensitive Staphylococcus aureus (MSSA) for each of the following representative compounds of the invention was determined to be less than 32 μg/ml.
# [2] = tested on: methicillin-resistant Staphylococcus aureus (MRSA); assay: Planktonic antibacterial broth microdilution assay (Test C), MIC vs MRSA; assay type: cell-based; details: read-out: MIC vs MRSA
# Protocol: as §1, §2
# Representative compounds of the invention were also tested against methicillin-resistant Staphylococcus aureus, vancomycin-resistant Enterococcus faecalis and Enterococcus faecium (VRE), vancomycin-sensitive Enterococcus faecalis and Enterococcus faecium (VSE).
# S. aureus FtsZ = biological target: T1, S. aureus FtsZ (Staphylococcus aureus, UniProt P0A031); assay: Inhibition of S. aureus FtsZ polymerization and GTPase activity (Tests A and B); assay type: biochemical
# T1 sequence (P0A031 1-390): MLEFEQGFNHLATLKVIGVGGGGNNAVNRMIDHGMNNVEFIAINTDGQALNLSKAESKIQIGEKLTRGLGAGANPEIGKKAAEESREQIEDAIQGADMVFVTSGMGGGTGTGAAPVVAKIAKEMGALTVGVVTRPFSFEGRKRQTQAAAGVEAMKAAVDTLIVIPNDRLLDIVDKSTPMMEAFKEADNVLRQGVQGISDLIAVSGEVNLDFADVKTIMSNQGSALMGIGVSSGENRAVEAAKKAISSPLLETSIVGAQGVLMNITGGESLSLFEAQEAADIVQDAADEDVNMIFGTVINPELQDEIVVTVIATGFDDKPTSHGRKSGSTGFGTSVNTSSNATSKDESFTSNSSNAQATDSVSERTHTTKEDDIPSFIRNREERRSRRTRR
# Source text: Test A. Determining the Impact of the Compounds of the Invention on FtsZ Polymerization Dynamics.
# Compound-induced alteration in FtsZ polymerization dynamics can be tested using a light scattering-based […] using purified FtsZ. Upon addition of GTP, FtsZ self-associates to form polymeric structures that scatter light at 340 nm to a greater extent than the monomeric protein. The impact of the compounds of the invention on the polymerization dynamics of FtsZ can be detected by an increase of decrease in the extent of GTP-induced light scattering relative to that observed in the absence of compound. Quantitation of the overall extent of light scattering as a function of compound concentration to yield a compound concentration at which FtsZ polymerization is inhibited by 50% (IC50) provides an indication of the potency of that compound at altering FtsZ polymerization dynamics.
# Test B. Determining the FtsZ GTPase Inhibitory Activities of Compounds of the Invention.
# Compound-induced inhibition of the FtsZ GTPase activity can be tested using a colorimetric assay in which the inorganic phosphate (Pi) released upon FtsZ-catalyzed hydrolysis of GTP reacts with malachite green and molybdate under acidic conditions to form a ternary complex that absorbs light at 650 nm, thus enabling quantitation of Pi levels by recording the absorbance at 650 nm (A650). Differing concentrations of test compound are combined with GTP and the reactions (run in triplicate) are initiated by addition of FtsZ. After incubation for 60 minutes at room temperature, the reactions are stopped by addition of an acidic malachite green-molybdate solution containing malachite green oxalate, sodium molybdate, Triton X-100, and 0.7 N HCl. For the purposes of generating a standard curve, each experiment includes reactions containing known concentrations of monobasic potassium phosphate (KH2PO4) in place of FtsZ. Ten minutes following addition of the acidic malachite green-molybdate solution, the A650 value for each reaction is recorded. A standard curve of A650 versus Pi concentration is constructed using the average A650 value obtained for each known KH2PO4 concentration. This standard curve is then fit by linear regression analysis to yield the quantitative relationship between A650 and Pi concentration. The resulting relationship as well as the average A650 value for each test reaction is used to calculate the concentrations of Pi released by the GTPase activity of FtsZ. The released Pi concentration in the absence of test compound is set as the mark for 100% GTPase activity, and is used to calculate the percent GTPase activities in reactions containing test compounds. The percent GTPase activity is then plotted as a function of log (compound concentration), with the resulting curves being fit using an appropriate sigmoidal relationship to obtain the compound concentrations at which GTPase activity is inhibited by 50% (IC50 values).
# [3] = broth microdilution, 37° C., growth read after 24 to 48 hours at OD 600 nm
# [4] = S. aureus FtsZ, polymerization and/or GTPase activity, read-out: IC50 (compound concentration at which FtsZ polymerization and/or GTPase activity is inhibited by 50%)
Compound,MIC [1] [µg/mL],"MIC [2, 3] [µg/mL]",IC50 (S. aureus FtsZ; [4]) [µM],MIC [2] [µg/mL],IC50 (S. aureus FtsZ) [µM]
C[n+]1ccc(-c2ccc(-c3ccccc3)cc2)c2ccccc21.[I-] [Example 120],≤ 8,–,–,> 32,< 118
CC(C)(C)c1ccc(-c2cccc3c(CNC(=N)N)cccc23)cc1 [Example 42],≤ 8,≤ 8,< 151,–,–
CCC[n+]1cc(-c2cc(OC)c(OC)c(-c3ccc(C(C)(C)C)cc3)c2)cc2cc(OC)c(OC)cc21.[I-] [Example 19],≤ 8,≤ 8,< 79.7,–,–
C[n+]1cccc2ccc(-c3ccc(-c4ccccc4)cc3)cc21.[I-] [Example 116],≤ 8,16,–,–,–
CN(C)CCNCc1ccccc1-c1ccc2c(-c3ccc(C(C)(C)C)cc3)cccc2c1 [Example 59],≤ 8,≤ 8,–,–,–
CC(C)(C)c1ccc(-c2cccc3cc(-c4ccccc4CNCCN)ccc23)cc1 [Example 62],≤ 8,≤ 8,–,–,–
C[n+]1ccc2c(-c3ccc(-c4ccccc4)cc3)cccc2c1.[I-] [Example 112],≤ 8,–,–,32,< 118

# The next lines start with results.
MIC [1] [µg/mL],"MIC [2, 3] [µg/mL]",IC50 (S. aureus FtsZ; [4]) [µM],Compound,MIC [2] [µg/mL],IC50 (S. aureus FtsZ) [µM]
≤ 8,≤ 8,< 118,C[n+]1cccc2cc(-c3ccc(-c4ccccc4)cc3)ccc21.[I-] [Example 114],–,–
≤ 8,≤ 8,< 93.4,CC(C)(C)c1ccc(-c2cccc3cc(-c4ccccc4C[N+](C)(C)C)ccc23)cc1.[I-] [Example 63],–,–
≤ 8,–,< 123,CC(C)(C)c1ccc(-c2cccc3cc(-c4ccccc4CNC(=N)N)ccc23)cc1 [Example 104],–,–
≤ 8,≤ 8,< 173,CC(C)(C)c1ccc(-c2cccc3c(CN)cccc23)cc1 [Example 41],–,–
